Experimental data published in US20230165872A1, “COMBINATION OF BCMA-DIRECTED T CELL THERAPY AND AN IMMUNOMODULATORY COMPOUND” (Juno Therapeutics, Inc., priority 2020, published 2023).

Legend:
[1] = test system: DF-15(R) (multiple myeloma) cells; assay: Murine orthotopic DF-15(R) tumor model (resistant), anti-BCMA CAR T cells plus Compound A; format: in vivo, mouse; details: combination
Procedure: Anti-tumor effects of anti-BCMA CAR T cells, alone and in combination with concurrent or delayed administration of Compound A (iberdomide, (S)-3-[4-(4-morpholin ylmethyl-benzyloxy)-1-oxo-1,3-dihydro-isoindol-2-yl]-piperidine-2,6-dione), were assessed in disseminated tumor models. The combinatorial effects were assessed in both tumor models sensitive to and resistant to the immunomodulatory compound. The anti-BCMA CAR T cells used in the study were produced as described in Example 1.
The effects of anti-BCMA CAR-T cells in combination with Compound A was assessed in a murine orthotopic tumor model using DF-15(R) cells, which is a tumor model that is resistant to the immunomodulatory compound. Mice (NOD.Cg-Prkdc^scidIL-2rg^tm1Wj1/SzJ mice (NSG; Jackson Labs)) were injected intravenously (i.v.) with 2×10^6 DF-15(R) (multiple myeloma) cells transfected with firefly luciferase ([…]). Tumor engraftment was allowed to occur for 13 days prior to staging (14 days before CAR-T cell administration) and verified using bioluminescence imaging.
In one study, mice were administered Compound A (1 mg/kg or 3 mg/kg) via oral administration once a day starting from the day before administration of 0.5×10^6 anti-BCMA CAR T cells, and administration of Compound A was continued once a day until 32 days post-CAR T cell administration (concurrent dosing). […]
For bioluminescence imaging (BLI), mice received intraperitoneal (i.p.) injections of luciferin substrate (CaliperLife Sciences, Hopkinton, Mass.) resuspended in PBS (15 μg/g body weight). The average radiance (p/s/cm^2/sr) was determined. Survival of mice treated as described above were assessed and compared over time post-infusion of CAR-expressing T cells. […]
The numbers of CD3+ CAR T cells were determined in the blood at day 6 and day 14 by flow cytometry using antibodies directed against CD3 and the surrogate marker on the CAR-expressing cells.

[2] = test system: RPMI-8226 target cells; assay: Rechallenge with RPMI-8226 after concurrent compound treatment during chronic stimulation (cytolysis, cytokines); format: cell-based, human
Procedure: Cryofrozen anti-BCMA CAR T cells, produced substantially as described in Example 1 and formulated at a 1:1 ratio of CD4+ and CD8^+ T cells, were thawed. To subject cells to chronic stimulation conditions, the anti-BCMA CAR+ T cells were stimulated with 50 μg BCMA conjugated beads (diameter about 4.5 μm from a 50 μg/ml BCMA-conjugated bead composition, generated as described in Example 2) at a ratio of T cells to beads of 1:1 in the presence or absence of Compound A (iberdomide, (S)-3-[4-(4-morpholin-4-ylmethyl-benzyloxy)-1-oxo-1,3-dihydro-isoindol-2-yl]-piperidine-2,6-dione) (1 nM or 10 nM), Compound B ((S)-4-(4-(4-(((2-(2,6-dioxopiperidin-3-yl)-1-oxoisoindolin-4-yl)oxy)methyl)benzyl)piperazin-1-yl)-3-fluorobenzonitrile) (0.1 nM or 1 nM), or DMSO vehicle control. The cells were then incubated at 37° C., 5% CO2 for 7 days.
CAR T cells that had been stimulated for 7 days with cultured with 50 μg BCMA-coated magnetic beads concurrently in the presence of the cell immunomodulatory compound were washed free of compound and cells were debeaded. The anti-BCMA CAR T cells that had been stimulated for 7 days with BCMA-conjugated beads in the presence of the compounds were co-cultured with RPMI-8226 target cells (labeled with NucLightRed as described in Example 2) at a 1:1 (effector:target) ratio. Killing activity was monitored over 200 hours by measuring NucLightRed (NLR)-positive target cells. The total cell number of NLR-expressing RPMI targets cells was determined by normalizing cell number over time to the number of cells at the initiation of the co-culture (t=0) for each respective condition.
For cytokine measurements, cell-free supernatants were collected from the cytolytic assay described above 24 hours after plating. Cytokine levels of IFNg, IL-2, and TNFalpha (TNFα) was measured in the supernatant.
Cryofrozen anti-BCMA CAR T cells, produced substantially as described in Example 1 and formulated at a 1:1 ratio of CD4+ and CD8+ T cells, were thawed. […] The cells were then incubated at 37° C., 5% CO2 for 7 days.
Cytolytic activity was assessed using OPM-2 and RPMI-8226 BCMA expressing target cells transduced with NucLight Red, a red fluorescent protein detectable by microscopy, to allow for measurement of target cell death. Anti-BCMA CAR T cells that had been stimulated for 7 days with BCMA-conjugated beads in the presence of the compounds were co-cultured with RPMI-8226 target cells at a 0.3:1 (effector:target) or 1:1 ratio. Cultures were incubated at 37° C., 5% CO2, and images were taken every 2 hours over 5-7 days with an Essen IncuCyte Zoom live-cell analysis system to track NucLightRed-positive target cells.
For cytokine measurements, cell-free supernatants were collected from the cytolytic assay described above 24 hours after plating. Cytokine levels were measured using IFNg, IL-2, and TNFalpha Meso Scale Discovery cytokine kit (Mesoscale) according to manufacturer instructions. The data was analyzed using GraphPad Prism to calculate absolute changes in cytokine relative to the DMSO vehicle control.

[3] = test system: CAR-expressing T cells; assay: Prolonged treatment: long-term proliferative potential of CAR-expressing T cells; format: cell-based; design: long term product performance: dose or concentration left out as unconfirmed
[4] = test system: lymphoma cells; details: cited from earlier work

O=C1CC[C@H](N2Cc3c(OCc4ccc(CN5CCOCC5)cc4)cccc3C2=O)C(=O)N1 [Compound A, (S)-3-[4-(4-morpholin-4-ylmethyl-benzyloxy)-1-oxo-1,3-dihydro-isoindol-2-yl]-piperidine-2,6-dione]
tumor burden (BLI) versus anti-BCMA CAR T cells alone ([1]; concurrent dosing, 1 or 3 mg/kg oral, FIG. 7A): reduce tumor burden | survival versus anti-BCMA CAR T cells alone ([1]; concurrent dosing, FIG. 7B): improve survival | numbers of CD3+ CAR+ T cells in the blood ([1]; concurrent regimen, low and high dose, day 6 and day 14, FIG. 7C): statistically significant increase | cytolytic activity after long-term stimulation in the presence of compound ([2]; Example 7: E:T 0.3:1, lenalidomide 1000 nM, Compound A 1 or 10 nM, FIG. 9A): increased cytolytic activity | production of IFN-gamma ([2]; Example 7: supernatant at 24 hours, relative to DMSO, FIG. 9B): increased production | production of IL-2 ([2]; Example 7: supernatant at 24 hours, relative to DMSO, FIG. 9C): increased production | production of TNF-alpha ([2]; Example 7: supernatant at 24 hours, relative to DMSO, FIG. 9D): increased production | long term product performance ([3]; higher concentrations): detrimental | long-term proliferative potential of CAR-expressing T cells ([3]; prolonged treatment, 10 or 100 nM): increase long-term proliferative potential | direct anti-proliferative effects on lymphoma cells [4]: potent direct anti-proliferative effects
